How the values were obtained:
PBMC = test: Cytokine production of stimulated PBMC (Bead Suspension Assay); format: cell-based, human; settings: 24 h
Protocol: PEP005 was provided as a dry powder. A stock solution of 23.55 mM was prepared in DMSO and aliquots were stored at −20° C. An aliquot of the stock solution was thawed on the day of use and stored at room temperature prior to and during dosing. Intermediate dilution steps were carried out using DMEM cell culture medium.
For the isolation of PBMC freshly drawn human blood treated with Li-Heparin as an anti-coagulant was used. Cells were diluted with three volumes of CliniMACS PBS/EDTA Buffer (Miltenyi, Bergisch Gladbach), carefully layered over FicollPaque (Amersham Biosciences, Freiburg) in a conical tube and centrifuged at 400×g for 40 minutes at 20° C. in a swinging-bucket rotor without brake. The upper layer was aspirated, leaving the mononuclear cell layer undisturbed at the interphase. The interphase cells (lymphocytes, monocytes and thrombocytes) were carefully transferred into a new conical tube. The conical tube was filled with CliniMACS PBS/EDTA Buffer and centrifuged at 300×g for 10 minutes at 20° C. The supernatant was completely removed. For removal of platelets the cell pellet was resuspended in 50 ml of Buffer and centrifuged at 200×g for 10 minutes at 20° C. The supernatant was completely removed and the last washing step was repeated. Cells were resuspended in DMEMMedium (Invitrogen, Karlsruhe) and counted in a Neubauer-hemocytometer.
For the stimulation of PBMC 250.000 cells per well were seeded in a 96-well plate. PBMC of three different healthy donors were stimulated with PEP005 in three different concentrations (1, 10 and 100 nM) or LPS 1 μg/ml (Linaris, Wertheim-Bettingen), PMA 10 ng/ml (Sigma, Deisenhofen) and Ionomycin 1 μg/ml (Sigma, Deisenhofen), respectively. Cells were incubated at 37° C. and 5% CO^2 in a humidified atmosphere for 24 h.
In a typical Bead Suspension Assay a cytokine is captured from a supernatant with bead bound antibodies. The cytokine is quantified with a secondary antibody to complete a sandwich immunoassay. Cytokine concentrations are calculated with the help of a standard curve for each cytokine.
The cytokines IL-1β, IL-2, IL-6, IL-8 and TNF-α were quantitatively measured in the supernatant of the PBMC with a BioRad BioPlex System according to the manufacturer's intructions. All samples were measured in duplicates. All units of detected proteins are pg/ml.
To investigate the immunostimulating effects of PEP005, PBMCs from three different healthy donors were exposed for 24 h to PEP005 at concentrations of 1, 10 and 100 nM. The secretion of IL-1β, IL-2, IL-6, IL-8 and TNF-α into the supernatant was quantitatively measured by flow cytometry with the Bead Suspension Assays. The results are depicted in Tables 1.4-1.8.

keratinocytes = test: Cytokine production by PEP005-treated human keratinocytes; format: cell-based; settings: 6 h, supernatant
Protocol: Cytokine production by PEP005-treated human cells Confluent cultures of Me10538 cells, keratinocytes, fibroblasts and neutrophils were incubated for 6 h in the absence or presence of PEP005 (1-100 ng/ml). The supernatants were harvested and analyzed for the presence of the following cytokines; TNF-α, IL-6 and IL-8 using a multiplex detection kit (Biosource International, Nivelles, Belgium). Units of detected proteins are pg/ml.

[1] = PBMC donor three, PEP005 100 nM
[2] = PBMCs from the three donors, 1 nM PEP005

Compound: C/C=C(/C)C(=O)O[C@H]1C(C)=C[C@]23C(=O)[C@@H](C=C(CO)[C@@H](O)[C@]12O)[C@H]1[C@@H](C[C@H]3C)C1(C)C [PEP005, ingenol-3-angelate]
- elevated IL-6 levels in PBMC supernatant (parenthetical, condition not stated) (PBMC): ~9 fold
- IL-1β production (PBMC; PBMC donor one, PEP005 1 nM): 94.49 pg/mL
- IL-2 production (PBMC; PBMC donor one, PEP005 1 nM): 82.68 pg/mL
- IL-6 production (PBMC; PBMC donor one, PEP005 1 nM): 320.61 pg/mL
- IL-8 production (PBMC; PBMC donor one, PEP005 1 nM): 13652.6 pg/mL
- TNF-α production (PBMC; PBMC donor one, PEP005 1 nM): 148.42 pg/mL
- IL-1β production (PBMC; PBMC donor one, PEP005 10 nM): 61.62 pg/mL
- IL-2 production (PBMC; PBMC donor one, PEP005 10 nM): 60.3 pg/mL
- IL-6 production (PBMC; PBMC donor one, PEP005 10 nM): 216.09 pg/mL
- IL-8 production (PBMC; PBMC donor one, PEP005 10 nM): 9418.94 pg/mL
- TNF-α production (PBMC; PBMC donor one, PEP005 10 nM): 76.14 pg/mL
- IL-1β production (PBMC; PBMC donor one, PEP005 100 nM): 0 pg/mL
- IL-2 production (PBMC; PBMC donor one, PEP005 100 nM): 10.56 pg/mL
- IL-6 production (PBMC; PBMC donor one, PEP005 100 nM): 0 pg/mL
- IL-8 production (PBMC; PBMC donor one, PEP005 100 nM): 52.77 pg/mL
- TNF-α production (PBMC; PBMC donor one, PEP005 100 nM): 19.44 pg/mL
- IL-1β production (PBMC; PBMC donor three, PEP005 1 nM): 314.73 pg/mL
- IL-2 production (PBMC; PBMC donor three, PEP005 1 nM): 54.61 pg/mL
- IL-6 production (PBMC; PBMC donor three, PEP005 1 nM): 131.46 pg/mL
- IL-8 production (PBMC; PBMC donor three, PEP005 1 nM): 28029.68 pg/mL
- TNF-α production (PBMC; PBMC donor three, PEP005 1 nM): 130.99 pg/mL
- IL-1β production (PBMC; PBMC donor three, PEP005 10 nM): 173.33 pg/mL
- IL-2 production (PBMC; PBMC donor three, PEP005 10 nM): 31.53 pg/mL
- IL-6 production (PBMC; PBMC donor three, PEP005 10 nM): 61.66 pg/mL
- IL-8 production (PBMC; PBMC donor three, PEP005 10 nM): 11438.34 pg/mL
- TNF-α production (PBMC; PBMC donor three, PEP005 10 nM): 73.48 pg/mL
- IL-1β production (PBMC; [1]): 10.92 pg/mL
- IL-2 production (PBMC; [1]): 2 pg/mL
- IL-6 production (PBMC; [1]): 0 pg/mL
- IL-8 production (PBMC; [1]): 205.36 pg/mL
- TNF-α production (PBMC; [1]): 12.93 pg/mL
- IL-1β production (PBMC; PBMC donor two, PEP005 1 nM): 125.17 pg/mL
- IL-2 production (PBMC; PBMC donor two, PEP005 1 nM): 17.86 pg/mL
- IL-6 production (PBMC; PBMC donor two, PEP005 1 nM): 69.48 pg/mL
- IL-8 production (PBMC; PBMC donor two, PEP005 1 nM): 12148.42 pg/mL
- TNF-α production (PBMC; PBMC donor two, PEP005 1 nM): 90.72 pg/mL
- IL-1β production (PBMC; PBMC donor two, PEP005 10 nM): 98.04 pg/mL
- IL-2 production (PBMC; PBMC donor two, PEP005 10 nM): 19.47 pg/mL
- IL-6 production (PBMC; PBMC donor two, PEP005 10 nM): 73.97 pg/mL
- IL-8 production (PBMC; PBMC donor two, PEP005 10 nM): 18220.74 pg/mL
- TNF-α production (PBMC; PBMC donor two, PEP005 10 nM): 71.6 pg/mL
- IL-1β production (PBMC; PBMC donor two, PEP005 100 nM): 11.76 pg/mL
- IL-2 production (PBMC; PBMC donor two, PEP005 100 nM): 12.84 pg/mL
- IL-6 production (PBMC; PBMC donor two, PEP005 100 nM): 95.43 pg/mL
- IL-8 production (PBMC; PBMC donor two, PEP005 100 nM): 217.52 pg/mL
- TNF-α production (PBMC; PBMC donor two, PEP005 100 nM): 35.75 pg/mL
- increase of IL-2 levels in the supernatant (PBMC; [2]): 20 to 80 fold
- mean increase of IL-2 levels in the supernatant (PBMC; [2]): approximately 50 fold
- increase of IL-6 levels in PBMC supernatants (PBMC; PEP005 at 1 nM): 4 to 6 fold
- increase of IL-8 levels in the supernatant of PBMCs (PBMC; PEP005 at 1 nM): 3- to 5 fold
- TNF-α levels in supernatants of PBMCs (PBMC; all three donors, PEP005 at 1 nM): approximately 120 nM
- IL-8 (keratinocytes; PEP005 1 ng/ml): 3910 ± 148 pg/mL
- TNFα (keratinocytes; PEP005 1 ng/ml): 510 ± 26 pg/mL
- IL-8 (keratinocytes; PEP005 5 ng/ml): 4775 ± 178 pg/mL
- TNFα (keratinocytes; PEP005 5 ng/ml): 847 ± 37 pg/mL
- IL-8 (keratinocytes; PEP005 10 ng/ml): 3895 ± 198 pg/mL
- TNFα (keratinocytes; PEP005 10 ng/ml): 498 ± 29 pg/mL
- IL-8 (keratinocytes; PEP005 100 ng/ml): 2950 ± 108 pg/mL
- TNFα (keratinocytes; PEP005 100 ng/ml): 335 ± 21 pg/mL

Source: patent US20090215884A1, “METHOD FOR WOUND HEALING” (priority 2005, published 2009)
